In the supplement of paper PMC11451515:

Test system: SEM cells
Test: cell viability relative to DMSO control; higher = less cytotoxic
Conditions: 48 h
In short: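 Three leukemia lines were tested: NOMO1 and SEM at 500 cells/well and P12-Ichikawa at 1000 cells/well. Each was adapted for at least four passages in each medium and seeded in 5 μl in 1536-well plates, and library compounds in DMSO were pin-dosed from 47 μM to 0.79 nM in 11 threefold steps. After 48 h at 37°C, CellTiter-Glo One luminescence was read. Viability is a percentage relative to DMSO wells on each plate, with cell-free wells as background.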

[1] = HPLM + 10% dialyzed FBS, 0.000781 µM
[2] = HPLM + 10% dialyzed FBS, 0.00234 µM
[3] = HPLM + 10% dialyzed FBS, 0.00702 µM
[4] = HPLM + 10% dialyzed FBS, 0.0211 µM
[5] = HPLM + 10% dialyzed FBS, 0.0632 µM
[6] = HPLM + 10% dialyzed FBS, 0.19 µM
[7] = HPLM + 10% dialyzed FBS, 0.569 µM
[8] = HPLM + 10% dialyzed FBS, 1.71 µM
[9] = HPLM + 10% dialyzed FBS, 5.12 µM
[10] = HPLM + 10% dialyzed FBS, 15.4 µM
[11] = HPLM + 10% dialyzed FBS, 46.1 µM
[12] = RPMI 5 mM glucose + 10% FBS, 0.000781 µM
[13] = RPMI 5 mM glucose + 10% FBS, 0.00234 µM
[14] = RPMI 5 mM glucose + 10% FBS, 0.00702 µM
[15] = RPMI 5 mM glucose + 10% FBS, 0.0211 µM
[16] = RPMI 5 mM glucose + 10% FBS, 0.0632 µM
[17] = RPMI 5 mM glucose + 10% FBS, 0.19 µM
[18] = RPMI 5 mM glucose + 10% FBS, 0.569 µM
[19] = RPMI 5 mM glucose + 10% FBS, 1.71 µM
[20] = RPMI 5 mM glucose + 10% FBS, 5.12 µM
[21] = RPMI 5 mM glucose + 10% FBS, 15.4 µM
[22] = RPMI 5 mM glucose + 10% FBS, 46.1 µM
[23] = RPMI 5 mM glucose + 10% dialyzed FBS, 0.000781 µM
[24] = RPMI 5 mM glucose + 10% dialyzed FBS, 0.00234 µM
[25] = RPMI 5 mM glucose + 10% dialyzed FBS, 0.00702 µM
[26] = RPMI 5 mM glucose + 10% dialyzed FBS, 0.0211 µM
[27] = RPMI 5 mM glucose + 10% dialyzed FBS, 0.0632 µM
[28] = RPMI 5 mM glucose + 10% dialyzed FBS, 0.19 µM
[29] = RPMI 5 mM glucose + 10% dialyzed FBS, 0.569 µM
[30] = RPMI 5 mM glucose + 10% dialyzed FBS, 1.71 µM
[31] = RPMI 5 mM glucose + 10% dialyzed FBS, 5.12 µM
[32] = RPMI 5 mM glucose + 10% dialyzed FBS, 15.4 µM
[33] = RPMI 5 mM glucose + 10% dialyzed FBS, 46.1 µM

SMILES | cell viability [1] | cell viability [2] | cell viability [3] | cell viability [4] | cell viability [5] | cell viability [6] | cell viability [7] | cell viability [8] | cell viability [9] | cell viability [10] | cell viability [11] | cell viability [12] | cell viability [13] | cell viability [14] | cell viability [15] | cell viability [16] | cell viability [17] | cell viability [18] | cell viability [19] | cell viability [20] | cell viability [21] | cell viability [22] | cell viability [23] | cell viability [24] | cell viability [25] | cell viability [26] | cell viability [27] | cell viability [28] | cell viability [29] | cell viability [30] | cell viability [31] | cell viability [32] | cell viability [33]
COc1ccc2cccc(CCNC(C)=O)c2c1 | 105% | 104% | 107% | 111% | 109% | 97.6% | 112% | 114% | 109% | 49.2% | 105% | 110% | 83.4% | 107% | 100% | 105% | 90% | 109% | 106% | 110% | 40.7% | 95% | 107% | 106% | 101% | 111% | 120% | 94.8% | 94.7% | 104% | 124% | 37.4% | 101%
NC12CC3CC(CC(C3)C1)C2 | 45.1% | 106% | 70.8% | 106% | 125% | 114% | 113% | 124% | 98.1% | 123% | 119% | 42.3% | 102% | 70.6% | 104% | 109% | 109% | 102% | 107% | 89% | 110% | 104% | 33.7% | 96.5% | 71.4% | 108% | 114% | 115% | 112% | 122% | 110% | 131% | 107%
COc1cc2ncnc(Nc3ccc(F)c(Cl)c3)c2cc1OCCCN1CCOCC1 | 118% | 113% | 123% | 103% | 123% | 112% | 107% | 102% | 86.8% | 48.5% | 10.9% |  |  |  |  |  |  |  |  |  |  |  | 105% | 119% | 125% | 102% | 125% | 118% | 123% | 108% | 78.1% | 82% | 31.9%
CC(C)[C@@H](N(CCCN)C(=O)C1=CC=C(C)C=C1)C/2=C(\CC3=CC=CC=C3)C(=O)C4=C(O2)C=C(Cl)C=C4 | 22.2% | 26.3% | 24.4% | 24.6% | 26.6% | 23.9% | 28.2% | 25.2% | 25.7% | 26.6% | 5.56% | 13.8% | 20.2% | 19.9% | 22.5% | 20% | 22.6% | 22.4% | 19.1% | 27.9% | 20.9% | 13.9% | 18.5% | 20.5% | 20% | 25.6% | 19.4% | 26.5% | 20% | 21.1% | 20.8% | 18.5% | 19.4%
c1cc(OCCN2CCCCC2)cc(-c2n[nH]c3ccc(-c4nc[nH]n4)cc23)c1 | 109% | 102% | 113% | 107% | 120% | 105% | 82.8% | 57.6% | 99.9% | 87.8% | 60.4% | 95.9% | 99.9% | 104% | 97.8% | 107% | 110% | 90.6% | 54.4% | 97.3% | 92.1% | 47.6% | 83.9% | 105% | 99.3% | 119% | 126% | 107% | 103% | 48.8% | 89.4% | 76.7% | 53.7%
c1ccc2c(Oc3nc(Nc4ccc(N5CCOCC5)cc4)c4ncn(C5CCCCC5)c4n3)cccc2c1 | 91% | 96.7% | 101% | 112% | 120% | 116% | 131% | 120% | 99.7% | 100% | 67.1% | 101% | 122% | 138% | 133% | 133% | 136% | 125% | 139% | 108% | 105% | 67% | 108% | 141% | 115% | 130% | 142% | 129% | 126% | 109% | 126% | 110% | 53.4%
c1ccc(-c2nn3c(c2-c2ccnc4cc(OCCN5CCOCC5)ccc24)CCC3)nc1 | 77.4% | 106% | 121% | 126% | 126% | 129% | 115% | 128% | 145% | 127% | 110% | 102% | 125% | 132% | 125% | 143% | 134% | 122% | 138% | 144% | 123% | 91.1% | 68.3% | 122% | 137% | 132% | 135% | 127% | 125% | 131% | 117% | 129% | 82.2%
CCCCOc1ccc(C(=O)Nc2ccc(F)cc2F)cc1 | 68.1% | 88.6% | 67.1% | 95.1% | 86.9% | 88.3% | 84.6% | 30.1% | 88.1% | 92.5% | 83.4% | 68.6% | 88.8% | 65.9% | 86.5% | 83.4% | 92.7% | 81.5% | 48.3% | 88.4% | 101% | 73.5% | 78% | 89.7% | 70.6% | 90.1% | 84.7% | 85.6% | 86.2% | 48.1% | 88% | 90.2% | 76.7%
CCCn1c(=O)c2[nH]c(-c3cnn(Cc4cccc(C(F)(F)F)c4)c3)nc2n(CC)c1=O | 100% | 109% | 111% | 120% | 109% | 124% | 124% | 113% | 107% | 109% | 95.4% | 95.8% | 89.9% | 106% | 109% | 103% | 108% | 99.8% | 94.4% | 116% | 109% | 90.5% | 109% | 109% | 111% | 111% | 116% | 124% | 109% | 104% | 112% | 117% | 98.4%
CN(C)c1nc(N(C)C)nc(N(C)C)n1 | 92.3% | 97.3% | 110% | 95.1% | 103% | 104% | 106% | 92.5% | 97.6% | 92.2% | 84.9% | 107% | 111% | 102% | 105% | 107% | 101% | 102% | 100% | 90.1% | 104% | 93.4% | 102% | 115% | 102% | 104% | 108% | 110% | 109% | 94.3% | 100% | 98.6% | 93.1%
CC1(C)OC/2=C(\[C@H](NCC3=CC=CC=C3)[C@@H]1O)C(=O)C4=CC=CC=C4C2=O | 103% | 95.6% | 91% | 115% | 98.4% | 111% | 106% | 110% | 83.6% | 41.1% | 9.15% | 80.9% | 71.7% | 98.4% | 83.9% | 94.1% | 91.9% | 108% | 99.7% | 54.2% | 24.5% | 5.4% | 96.8% | 74.4% | 109% | 97.7% | 94.4% | 106% | 109% | 92.5% | 83.4% | 48.1% | 8.42%
O=P(O)(O)C(O)(Cc1cccnc1)P(=O)(O)[O][Na] (centres undefined) | 83% | 67.3% | 100% | 21.8% | 102% | 111% | 104% | 108% | 111% | 107% | 116% | 89.6% | 51.7% | 91% | 14.2% | 95.7% | 100% | 90.3% | 96.8% | 110% | 100% | 112% | 96.1% | 52.9% | 92.7% | 22.1% | 121% | 116% | 113% | 102% | 118% | 108% | 123%
CO[C@@H]1[C@H](N(C)C(=O)c2ccccc2)C[C@H]2O[C@]1(C)n1c3ccccc3c3c4c(c5c6ccccc6n2c5c31)C(=O)NC4 | 103% | 104% | 119% | 97% | 114% | 105% | 55.5% | 37.6% | 20.7% | 12.7% | 7% | 87% | 111% | 110% | 106% | 105% | 92.4% | 64.2% | 30.3% | 10.9% | 6.27% | 4.63% | 101% | 108% | 109% | 97% | 107% | 85.5% | 63% | 34.7% | 11.8% | 7.3% | 4.43%
CCCn1c(=O)c2[nH]c(C34CC5CC3C[C@@H](C5)C4)nc2n(CCC)c1=O | 102% | 84.8% | 103% | 109% | 110% | 122% | 115% | 103% | 97.9% | 95.5% | 97.8% | 50.7% | 44.7% | 84.2% | 94.6% | 107% | 101% | 94.1% | 97.2% | 94.8% | 91.1% | 84.4% | 91.6% | 73.2% | 116% | 130% | 117% | 110% | 118% | 109% | 101% | 91.5% | 111%
CN(C)[C@H]\1[C@@H]2[C@@H](O)[C@@H]\3C(=C)C4=C(C(=CC=C4)O)C(=O)C3=C(\O)[C@@]2(O)C(=O)\C(=C1O)C(N)=O | 85.1% | 91.5% | 81.1% | 97.1% | 90.4% | 98.6% | 98.2% | 113% | 96.5% | 97.8% | 91.6% | 104% | 97.8% | 82.5% | 119% | 112% | 124% | 118% | 118% | 105% | 93.9% | 79.7% | 112% | 121% | 86.7% | 108% | 122% | 125% | 106% | 123% | 114% | 107% | 91.6%
